From article PMC6328008 (Journal of Enzyme Inhibition and Medicinal Chemistry, 2019)
“Also recorded” adds a separate entry of the source.

Columns and labels:
[1] = system: Panc1 pancreatic cancer cells; assay: Cancer cell line growth inhibition assay; type: cell-based, human; details: for Inhibition of growth of Panc1 cells (in words): 3 days, concentrations up to 10 µM
[2] = system: normal mobilised peripheral blood progenitor cells; details: listed as NSAH; cited from earlier work

Structure (SMILES) | Inhibition of growth of Panc1 cells (in words) [1] | also measured
O=C1Nc2ccccc2/C1=N\NC(=O)c1ccccc1O [TP1, (E)-2-Hydroxy-N'-(2-oxoindolin-3-ylidene)benzohydrazide] | did not inhibit the growth | –
O=C(N/N=C/c1cc(-c2ccccc2)ccc1O)c1ccccc1O [TP2, (E)-2-Hydroxy-N'-((4-hydroxy-[1,1'-biphenyl]-3-yl)methylene)-benzohydrazide] | – | Fold decrease in potency in cells on removal of the methoxy (TP2, 3 vs TP5, 6) ([1]; Panc1): > 2 fold
O=C(N/N=C/c1cc(-c2ccsc2)ccc1O)c1ccccc1O [TP3, (E)-2-Hydroxy-N'-(2-hydroxy-5-(thiophen-3-yl)-benzylidene)-benzohydrazide] | – | Fold decrease in potency in cells on removal of the methoxy (TP2, 3 vs TP5, 6) ([1]; Panc1): > 2 fold
COc1ccc(-c2ccsc2)c(/C=N/NC(=O)c2ccccc2O)c1O [TP6, (E)-2-Hydroxy-N'-(2-hydroxy-3-methoxy-6-(thiophen-3-yl)benzylidene)-benzohydrazide] | – | Fold decrease in IC50 over lead compound NSAH (TP8) ([1]; Panc1): > 2 fold
Nc1ncnc2c1ncn2-c1ccc(/C=N/NC(=O)c2ccccc2O)cc1 [TP7, (E)-N'-(4–(6-amino-9H-purin-9-yl)benzylidene)-2-hydroxybenzohydrazide] | did not inhibit the growth | –
O=C(N/N=C/c1c(O)ccc2ccccc12)c1ccccc1O [TP8, (E)-2-Hydroxy-N'-((2-hydroxynaphthalen-1-yl)methylene)-benzohydrazide] | – | Toxicity against normal mobilised peripheral blood progenitor cells [2]: much less effective
COc1ccc(-c2cnc(-c3ccccc3O)s2)cc1 [TP9, 2–(5-(4-Methoxyphenyl)thiazol-2-yl)-phenol] | did not inhibit the growth; also recorded: ineffective | –
O=C(NNC(=O)c1c(O)ccc2ccccc12)c1cccnc1 [TP11, N'-(2-Hydroxy-1-naphthoyl)-nicotinohydrazide] | did not inhibit the growth | –
O=C(N/N=C/c1cccnc1)c1c(O)ccc2ccccc12 [TP12, (E)-2-Hydroxy-N'-(pyridin-3-ylmethylene)-1-naphthohydrazide] | did not inhibit the growth | –
O=C(NNC(=O)c1ccccc1O)c1cccnc1 [TP13, N'-(2-Hydroxybenzoyl)-nicotinohydrazide] | did not inhibit the growth | –
